Data published in US20220265603A1, “HEPATIC FIBROSIS-INHIBITING AGENT AND BROWN FAT CELL-ACTIVATING AGENT CONTAINING TAXIFOLIN” (NATIONAL HOSPITAL ORGANIZATION, priority 2019, published 2022).

Assays:
[1] = Food ingestion experiment: body weight and food intake; format: in vivo, C57BL/6J mice
Experimental: C57BL/6J mice were used as experimental animals. They were purchased at the age of 7 weeks from CLEA Japan, Inc. and randomly divided into four groups at the age of 8 weeks after 1 week of acclimation as shown in Table 1 below. They were allowed to eat and drink freely, and their food intake and body weight were measured once a week. Fasting blood glucose was measured on the first day of the feeding experiment and once every 4 weeks thereafter (at 4, 8, and 12 weeks after the start of the feeding). At the end of 12 weeks, an intraperitoneal glucose tolerance test (IPGTT) was performed to analyze glucose tolerance. Rectal temperature was also measured at 8 and 12 weeks follow-up (Table 2).

[2] = Fasting blood glucose and intraperitoneal glucose tolerance test (IPGTT); format: in vivo, C57BL/6J mice; conditions: 12 weeks
Experimental: (§1) They were allowed to eat and drink freely, and their food intake and body weight were measured once a week. Fasting blood glucose was measured on the first day of the feeding experiment and once every 4 weeks thereafter (at 4, 8, and 12 weeks after the start of the feeding). At the end of 12 weeks, an intraperitoneal glucose tolerance test (IPGTT) was performed to analyze glucose tolerance. Rectal temperature was also measured at 8 and 12 weeks follow-up (Table 2). glucose tolerance: The area under the blood glucose curve (AUC) was calculated from the blood glucose fluctuation curve from fasting blood glucose level to 120 min after ingestion using the trapezoidal formula.

[3] = Rectal temperature measurement; format: in vivo, C57BL/6J mice; conditions: normal diet+3% taxifolin group
Experimental: as §1, with “2).” for “2). glucose tolerance: The area under the blood glucose curve (AUC) was calculated from the blood glucose fluctuation curve from fasting blood glucose level to 120 min after ingestion using the trapezoidal formula.”

[4] = tested on: UCP1 gene; assay: UCP1 gene expression in brown adipose tissue, real-time RT PCR; format: in vivo, C57BL/6J mice; conditions: high-fat diet+3% taxifolin vs high-fat diet only, 12 weeks
Description: (§2) (vii) Histological Analysis of the Liver Observation of morphology and fat accumulation: Hematoxylin Eosin (HE) staining Observation of fibrosis: Azan staining, SiriusRed staining, immunohistochemistry (anti-F4/80 antibody) (viii) Analysis of Brown Adipocytes and UCP1 Target tissue: Brown adipose tissue Target: UCP1 gene Means of analysis: real-time RT PCR analysis

[5] = Tissue weight at autopsy; format: in vivo, C57BL/6J mice; conditions: high-fat diet+3% taxifolin vs high-fat diet only, 12 weeks
Experimental: The last fasting blood glucose was measured 5 days after the day of PGTT, and all blood samples were collected under ether anesthesia, then the mice were euthanized by cervical dislocation, and samples were collected and partially weighed as shown in Table 3 below.

[6] = Blood concentration and biochemical test; format: in vivo, C57BL/6J mice; conditions: high-fat diet+3% taxifolin vs high-fat diet only, 12 weeks
Description: insulin concentration: Ultra-sensitive mouse insulin ELISA kit (Morinaga Institute of Biological Science, Inc.) leptin concentration: mouse/rat leptin ELISA kit (Morinaga Institute of Biological Science, Inc.) adiponectin concentration: mouse/rat adiponectin ELISA kit (Otsuka Pharmaceutical Co., Ltd.) Triglyceride: Lab Assay Kit (Wako) TNF-α, IL-1β concentration: ELISA kit (Proteintech) ALT, AST levels: Assay Kit (Funakoshi Co., Ltd.)

[7] = tested on: AMPK; assay: Liver AMPK phosphorylation, Western blotting; format: in vivo, C57BL/6J mice; conditions: 12 weeks
Description: (§3) AMPK phosphorylation, ACC phosphorylation: Western blotting

[8] = tested on: ACC; assay: Liver ACC phosphorylation, Western blotting; format: in vivo, C57BL/6J mice; conditions: 12 weeks
Description: as §3

[9] = tested on: liver fatty acid synthesis-related genes; assay: Liver fatty acid synthesis-related gene expression, RT PCR; format: in vivo, C57BL/6J mice; conditions: high-fat diet+3% taxifolin vs high-fat diet only, 12 weeks
Description: Srebp1c, Lxra, FAS, Scd1, PPARα, Cpt1a gene expression: Real-time Quantitative RT PCR

[10] = tested on: fatty acid oxidation-related genes; assay: Liver fatty acid oxidation-related gene expression, RT PCR; format: in vivo, C57BL/6J mice; conditions: high-fat diet+3% taxifolin vs high-fat diet only, 12 weeks
[11] = tested on: lipid peroxidation; assay: Blood and liver tissue lipid peroxidation (MDA) assay; format: in vivo, C57BL/6J mice; conditions: 12 weeks
Description: Blood and liver tissue lipid peroxidation: Lipid Peroxidation (MDA) Colorimetric Assay Kit (BioVision, Inc.)

[12] = tested on: anti-oxidation enzymes (Mn-SOD, CuZn-SOD, Catalase, GP-x); assay: Anti-oxidation enzyme gene expression, RT PCR; format: in vivo, C57BL/6J mice; conditions: 12 weeks
Description: Anti-oxidation enzyme (Mn-SOD, CuZn-SOD, Catalase, GPx) gene expression: Real-time Quantitative RT PCR

[13] = tested on: F4/80, TNF-α, IL-1β gene expression; assay: Liver tissue inflammation index gene expression, RT PCR; format: in vivo, C57BL/6J mice; conditions: high-fat diet+3% taxifolin vs high-fat diet only, 12 weeks
Description: F4/80, TNF-α, IL-1β gene expression: Real-time Quantitative RT PCR

[14] = tested on: P38 MAPK, NF-κB p65, JNK phosphorylation; assay: Inflammation induction signal pathway activity in liver, Western blotting; format: in vivo, C57BL/6J mice; conditions: high-fat diet+3% taxifolin vs high-fat diet only, 12 weeks
Description: P38 MAPK phosphorylation, NF-κB p65 phosphorylation, JNK phosphorylation: Western blotting

[15] = tested on: αSMA, PAI1, TGF-β1, Type1 collagen gene expression; assay: Liver fibrosis index gene expression, RT PCR; format: in vivo, C57BL/6J mice; conditions: high-fat diet+3% taxifolin vs high-fat diet only, 12 weeks
Description: αSMA, PAI1, TGF-β, 1-type Collagen gene expression: Real-time Quantitative RT PCR

[16] = tested on: F4/80, αSMA, TGF-β1 protein; assay: Liver fibrosis index protein amount, Western blotting; format: in vivo, C57BL/6J mice; conditions: 12 weeks
Description: F4/80, αSMA, TGF-β1 protein amount: Western blotting

[17] = tested on: liver tissue; assay: Histological analysis of the liver (HE, Azan, SiriusRed, anti-F4/80); format: in vivo, C57BL/6J mice; conditions: 12 weeks
Experimental: as §2, with “Liver samples were partially trimmed for tissue observation, washed, immersed in 4% paraformaldehyde, and fixed at 4° C. overnight. The fixed samples were washed, dehydrated in an ascending ethanol series, and paraffin-embedded. (vii)” for “(vii)”

[18] = non-patent document 9; cited from earlier work
[19] = tested on: acute pancreatitis model mouse; conditions: non-patent document 10; cited from earlier work
[20] = tested on: type 1 diabetes model rat; conditions: non-patent document 11; cited from earlier work
[21] = tested on: Alzheimer's disease model mouse; conditions: cited from earlier work
[22] = high-fat diet+3% taxifolin vs high-fat diet only
[23] = normal diet+3% taxifolin vs normal diet only
[24] = liver tissue, high-fat diet+3% taxifolin vs high-fat diet only

In the case of `O=C1c2c(O)cc(O)cc2O[C@H](c2ccc(O)c(O)c2)[C@H]1O` [taxifolin], the body weight ([1]; high-fat diet+3% taxifolin vs high-fat diet only, 4 weeks) is reported as “significant difference”, the body weight ([1]; normal diet+3% taxifolin group vs all other groups, 8 weeks) is reported as “significant difference in weight loss” and the body weight ([1]; normal diet+3% taxifolin group vs other groups, 12 weeks) is reported as “no weight gain was observed”. For the same compound, the body weight ([1]; normal diet+3% taxifolin group, 6 weeks) was “significant difference in weight loss”, the “fasting blood glucose (FIG. 6A)” value [2, 22] was “significantly decreased” and the “blood glucose area under the curve (AUC)” value ([2]; high-fat diet+3% taxifolin vs high-fat diet only, IPGTT) was “significantly decreased”. The “blood glucose level at 60 min after start of intraperitoneal glucose tolerance test” value ([2]; normal diet+3% taxifolin group) was “significantly lower”, the “fasting blood glucose (FIG. 3A)” value ([2]; normal diet+3% taxifolin group) was “significantly lower” and the “fasting blood glucose (FIG. 6A)” value [2, 23] was “significantly decreased”. For the same compound, the rectal temperature ([3]; 8 weeks) was “significantly higher”, the rectal temperature ([3]; 12 weeks) was “trend was also observed” and the UCP1 gene expression [4] was “significantly increased”. For the same compound, the “brown adipose tissue weight (BAT weight)” value [5] was “significantly decreased”, the “epididymal fat weight (EPI WAT weight)” value [5] was “significantly decreased” and the liver weight [5] was “significantly decreased”. For the same compound, the “blood ALT levels” value [6] was “significantly decreased”, the blood insulin concentration [6] was “significantly decreased” and the blood leptin concentration [6] was “significantly decreased”. The “insulin resistance index (HOMA-R)” value [6] was “significantly decreased”, the liver triglyceride concentration [6] was “significantly decreased” and the “blood TNF-α concentration” value ([6]; P=0.076) was “tendency to decrease”. For the same compound, the blood triglyceride concentration ([6]; P=0.079) was “decreasing trend”, the “blood IL-1β concentration” value ([6]; P=0.0932) was “tendency to decrease” and the AMPK phosphorylation [7, 22] was “significantly increased”. For the same compound, the AMPK phosphorylation [7, 23] was “significantly increased”, the ACC phosphorylation [8, 22] was “significantly increased” and the ACC phosphorylation [8, 23] was “significantly increased”. The FAS gene expression [9] was “significantly decreased”, the Lxrα gene expression [9] was “significantly decreased” and the Scd1 gene expression [9] was “significantly decreased”. The Srebp1c gene expression [9] was “significantly decreased”, the Cd36 gene expression [10] was “significantly decreased” and the “concentration of MDA in the liver” value [11, 22] was “significantly decreased”. For the same compound, the “concentration of malondialdehyde (MDA) in blood” value [11, 22] was “significantly decreased”, the “concentration of MDA in the liver” value [11, 23] was “significantly decreased” and the Catalase gene expression [12, 22] was “significantly decreased”. The CuZn-SOD gene expression [12, 22] was “significantly decreased”, the GP-x gene expression [12, 22] was “significantly decreased” and the Mn-SOD gene expression [12, 22] was “significantly decreased”. For the same compound, the Mn-SOD gene expression [12, 23] was “significantly decreased”, the F4/80 gene expression [13] was “significantly decreased” and the IL-1β gene expression [13] was “significantly decreased”. The TNF-α gene expression [13] was “significantly decreased”, the “NF-κB p65 phosphorylation” value [14] was “significantly decreased” and the “P38 MAPK phosphorylation” value ([14]; P=0.1045) was “decreasing trend”. For the same compound, the “c-Jun amino-terminal kinase (JNK) phosphorylation” value ([14]; P=0.1701) was “decreasing trend”, the PAI1 gene expression [15] was “significantly decreased” and the TGF-β1 gene expression [15] was “significantly decreased”. The αSMA gene expression [15] was “significantly decreased”, the “Collagen 1 gene expression” value ([15]; P=0.07) was “decreasing trend” and the F4/80 protein amount [16, 22] was “significantly decreased”. The αSMA protein amount ([16]; high-fat diet+3% taxifolin vs high-fat diet only, P=0.054) was “decreasing trend”, the F4/80 protein amount [16, 23] was “decrease was significant” and the TGF-β1 protein amount [16, 23] was “significantly decreased”. The “hepatic crown-like structures (hCLS), anti-F4/80 immunohistochemical staining” value ([17]; high-fat diet+3% taxifolin group vs high-fat diet-only group) was “hardly observed”, the “fat accumulation in liver, HE staining” value [17, 22] was “markedly reduced” and the “amount of collagen stained blue, Azan staining” value [17, 24] was “reduced”. The “amount of collagen stained red, Sirius Red staining” value [17, 24] was “decreased”, the safety for intake [18] was “safe for intake” and the anti-oxidation action [19] was “anti-oxidation action”. The blood glucose [20] was “blood glucose-improving effects”, the “amyloid P coagulation” value [21] was “suppression of amyloid P coagulation” and the brain blood flow [21] was “improvement of brain blood flow”. For the same compound, the “spatial recognition function in the water maze test” value [21] was “improvement of spatial recognition function”.
